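These data come from cells grown in 96-well plates and exposed to compound for 48 hours at five concentrations. At the GI50, growth is halved. The concentration for full growth arrest is given as TGI.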
Experiments:
Test in all cases: growth of human tumour cells (NCI), 48 h
NCI-H23 lung = system: NCI-H23 lung
SK-MEL-2 melanoma = system: SK-MEL-2 melanoma
SF-295 CNS = system: SF-295 CNS
SNB-19 CNS = system: SNB-19 CNS
RXF 393 renal = system: RXF 393 renal
MDA-MB-435 = system: MDA-MB-435
MOLT-4 leukemia = system: MOLT-4 leukemia
A549 NSCLC = system: A549 NSCLC
LOX IMVI melanoma = system: LOX IMVI melanoma

SMILES	TGI (NCI-H23 lung)	TGI (SK-MEL-2 melanoma)	TGI (SF-295 CNS)	TGI (SNB-19 CNS)	TGI (RXF 393 renal)	TGI (MDA-MB-435)	TGI (MOLT-4 leukemia)	TGI (A549 NSCLC)	TGI (LOX IMVI melanoma)	GI50 (NCI-H23 lung)	GI50 (SK-MEL-2 melanoma)	GI50 (SF-295 CNS)	GI50 (SNB-19 CNS)	GI50 (MOLT-4 leukemia)	GI50 (A549 NSCLC)	GI50 (LOX IMVI melanoma)	GI50 (MDA-MB-435)
COc1ccc(N=C2C(=Nc3ccc(OC)cc3)N(S(=O)(=O)c3ccccc3)C(=S)N2c2ccc(OC)cc2)cc1	> 100 µM	> 100 µM	> 100 µM	> 100 µM	> 100 µM	> 100 µM	> 100 µM	> 100 µM	–	–	–	–	–	–	–	–	–
CC1C(c2ccc3c(c2)OCO3)c2cc3c(cc2OC1N1CCCCC1)OCO3 (centres undefined)	> 100 µM	> 100 µM	> 100 µM	> 100 µM	–	62.8 µM	> 100 µM	> 100 µM	> 100 µM	–	–	–	–	–	–	–	–
O=C(NCCCCNCCCNC(=O)c1cc(-c2ccccc2)nc2ccccc12)c1cc(-c2ccccc2)nc2ccccc12	4.02 µM	3.49 µM	3.17 µM	–	3.97 µM	3.17 µM	–	3.01 µM	–	–	–	–	–	–	–	–	–
CCOC(=O)COc1c(OC)cc(C2C3=C(COC3=O)Oc3cc4c(cc32)OCO4)cc1OC (centres undefined)	14.2 µM	> 100 µM	> 26.3 µM	> 100 µM	–	0.89 µM	41.8 µM	> 100 µM	> 100 µM	–	–	–	–	–	–	–	–
CSc1nncc2[nH]cnc12	> 100 µM	> 100 µM	> 100 µM	> 100 µM	> 100 µM	> 100 µM	> 100 µM	> 100 µM	–	–	–	–	–	–	–	–	–
N#C[C@@]12CCCC(=O)[C@@H]1[C@H]1CCC[C@H]12	35 µM	43.3 µM	44.6 µM	42.4 µM	–	33.5 µM	55.9 µM	37 µM	31 µM	–	–	–	–	–	–	–	–
Cc1cc(O)c(/C=N/c2nc(-c3cccc([N+](=O)[O-])c3)cs2)c(=O)o1	> 100 µM	> 100 µM	> 100 µM	> 100 µM	–	> 100 µM	–	> 100 µM	> 100 µM	–	–	–	–	–	–	–	–
C/C(=N\O)c1cccc(Nc2nc3ccccc3c3occc23)c1	–	–	22.6 µM	39.8 µM	21 µM	24 µM	32.9 µM	32.5 µM	33.2 µM	–	–	–	–	–	–	–	–
COc1ccc2c(c1)CCCN1CCc3cc(OC)c(OC)cc3C21 (centres undefined)	–	–	> 100 µM	> 100 µM	–	> 100 µM	> 100 µM	> 100 µM	> 100 µM	–	–	–	–	–	–	–	–
O=c1c(O)c(-c2cc(O)c(O)cc2O)oc2cc(O)c(C3OC(CO)C(O)C(O)C3O)c(O)c12 (centres undefined)	–	> 100 µM	> 100 µM	> 100 µM	–	> 100 µM	> 100 µM	> 100 µM	> 100 µM	–	–	–	–	–	–	–	–
COC(=O)c1cc2c3c(cc(O)c2[nH]1)N(C(=O)C1Cc2cc(OC)c(OC)c(OC)c2N1)CC3CCl (centres undefined)	< 0.01 µM	< 0.01 µM	< 0.01 µM	1.05 µM	–	–	0.132 µM	1.36 µM	0.291 µM	< 0.01 µM	< 0.01 µM	< 0.01 µM	< 0.01 µM	< 0.01 µM	< 0.01 µM	< 0.01 µM	–
Cn1c2ccccc2n2c(=O)c3cccnc3c(C#N)c12	> 100 µM	–	> 100 µM	–	> 100 µM	> 100 µM	> 100 µM	–	> 100 µM	–	–	–	–	–	–	–	–
Fc1cc(-c2ncc(Cl)cc2Cl)c2cccccc1-2	> 100 µM	–	> 100 µM	> 100 µM	> 100 µM	–	–	> 100 µM	> 100 µM	–	–	–	–	–	–	–	–
COc1cc(/C=C2\CN(S(=O)(=O)c3ccc(C)cc3)C/C(=C\c3cc(CN4CCCCC4)c(O)c(OC)c3)C2=O)cc(CN2CCCCC2)c1O	–	–	5.15 µM	–	–	1.39 µM	5.04 µM	–	–	–	–	2.26 µM	–	0.918 µM	–	–	0.36 µM
O=C(CCc1ccccc1CO)NCCc1ccccc1	> 100 µM	> 100 µM	> 100 µM	> 100 µM	> 100 µM	> 100 µM	> 100 µM	> 100 µM	–	–	–	–	–	–	–	–	–
CC(=O)O[C@H]1C(=O)[C@@]2(C)[C@H]([C@H](OC(=O)c3ccccc3)[C@]3(O)C[C@H](OC(=O)[C@H](O)[C@@H](NC(=O)CC(C)C)c4ccccc4)C(C)=C1C3(C)C)[C@]1(OC(C)=O)CO[C@@H]1C[C@@H]2O	> 10 µM	> 10 µM	0.508 µM	> 10 µM	–	–	> 10 µM	> 10 µM	> 10 µM	–	–	–	–	–	–	–	–
O=C1/C(=C/c2cccs2)NC(=S)N1CN1CCOCC1	> 100 µM	> 100 µM	> 100 µM	> 100 µM	–	> 100 µM	> 100 µM	> 100 µM	> 100 µM	–	–	–	–	–	–	–	–
O=C(O)c1cc(O)c2c(c1)Cc1cccc(O)c1C2=O	> 100 µM	–	50.5 µM	95.1 µM	–	> 100 µM	56.5 µM	> 100 µM	–	–	–	–	–	–	–	–	–
COc1cc2c(cc1OC)C(Cc1ccccc1CCCl)=NCC2	> 100 µM	> 100 µM	> 100 µM	> 100 µM	> 100 µM	> 100 µM	> 100 µM	> 100 µM	–	–	–	–	–	–	–	–	–
CN[C@@H](C)[C@H](OP(=O)(O)OC1[C@@H](O)[C@H](O)C(O)[C@H](O)[C@@H]1O)c1ccccc1 (some centres undefined)	> 100 µM	> 100 µM	> 100 µM	> 100 µM	–	> 100 µM	> 100 µM	> 100 µM	–	–	–	–	–	–	–	–	–

— PubChem BioAssay (NCI)
